In ChEMBL document CHEMBL4270577, “Synthesis, anticancer activity and molecular modeling studies of 1,2,4-triazole derivatives as EGFR inhibitors” (Eur J Med Chem, 2018) one finds inhibition of growth, IC50 and Activity data, which are given here for two molecules.

The test system of one experiment is UACC-257. As to the kind of experiment: Growth inhibition of human UACC257 cells at 10 uM incubated for 48 hrs by sulforhodamine B assay relative to control. It counts as functional. Particulars: UACC-257, 48 h, read-out: GI. (In general: In SRB staining, fixed cells bind dye roughly in proportion to their protein.)
For experiment [1], the system named is HT-29. As to the kind of experiment: Growth inhibition of human HT-29 cells at 10 uM incubated for 48 hrs by sulforhodamine B assay relative to control. It counts as functional. Particulars: HT-29, 48 h, read-out: GI.
The test system of the next experiment is HOP-62. Nature of the experiment: Growth inhibition of human HOP62 cells at 10 uM incubated for 48 hrs by sulforhodamine B assay relative to control. In kind it is functional. Conditions: HOP-62, 48 h, read-out: GI.
For a further experiment, the system named is SF-268. Nature of the experiment: Growth inhibition of human SF268 cells at 10 uM incubated for 48 hrs by sulforhodamine B assay relative to control. In kind it is functional. Particulars: SF-268, 48 h, read-out: GI.
In the next experiment the test system is SNB-19. Nature of the experiment: Growth inhibition of human SNB19 cells at 10 uM incubated for 48 hrs by sulforhodamine B assay relative to control. In kind it is functional. Conditions: SNB-19, 48 h, read-out: GI.
Another experiment concerns T47D. Nature of the experiment: Growth inhibition of human T47D cells at 10 uM incubated for 48 hrs by sulforhodamine B assay relative to control. In kind it is functional. Conditions: read-out: GI.
The subject of another experiment is MIA PaCa-2. Nature of the experiment: Antiproliferative activity against human MIAPaCa2 cells after 48 hrs by propidium iodide staining-based fluorometric analysis. It counts as functional, cell-based. Conditions: MIA PaCa-2, 48 h.
A further experiment deals with UO-31. Nature of the experiment: Growth inhibition of human UO31 cells at 10 uM incubated for 48 hrs by sulforhodamine B assay relative to control. In kind it is functional. Particulars: UO-31, 48 h, read-out: GI.
Another experiment relates to NCI-H226. Nature of the experiment: Growth inhibition of human NCI-H226 cells at 10 uM incubated for 48 hrs by sulforhodamine B assay relative to control. In kind it is functional. Conditions: NCI-H226, 48 h, read-out: GI.
The test system of another experiment is CCRF-CEM. Nature of the experiment: Growth inhibition of human CCRF-CEM cells at 10 uM incubated for 48 hrs by sulforhodamine B assay relative to control. In kind it is functional. Conditions: read-out: GI.
For another experiment, the system named is UACC-62. Nature of the experiment: Growth inhibition of human UACC62 cells at 10 uM incubated for 48 hrs by sulforhodamine B assay relative to control. Conditions: UACC-62, 48 h, read-out: GI. In kind it is functional.
The subject of a further experiment is NCI-H322M. Nature of the experiment: Growth inhibition of human NCI-H322M cells at 10 uM incubated for 48 hrs by sulforhodamine B assay relative to control. It counts as functional. Conditions: read-out: GI.
For another experiment, the system named is IGROV-1. Nature of the experiment: Growth inhibition of human IGROV1 cells at 10 uM incubated for 48 hrs by sulforhodamine B assay relative to control. Particulars: IGROV-1, 48 h, read-out: GI. It counts as functional.
Another experiment concerns A549. As to the kind of experiment: Growth inhibition of human A549/ATCC cells at 10 uM incubated for 48 hrs by sulforhodamine B assay relative to control. In kind it is functional. Particulars: A549, 48 h, read-out: GI.
The subject of the next experiment is U-251. As to the kind of experiment: Growth inhibition of human U251 cells at 10 uM incubated for 48 hrs by sulforhodamine B assay relative to control. It counts as functional. Conditions: U-251, 48 h, read-out: GI.
The next experiment relates to SR. As to the kind of experiment: Growth inhibition of human SR cells at 10 uM incubated for 48 hrs by sulforhodamine B assay relative to control. In kind it is functional. Conditions: read-out: GI.
The next experiment has as its system RPMI-8226. As to the kind of experiment: Growth inhibition of human RPMI8226 cells at 10 uM incubated for 48 hrs by sulforhodamine B assay relative to control. Conditions: RPMI-8226, 48 h, read-out: GI. It counts as functional.
For the next experiment, the system named is SNB-75. As to the kind of experiment: Growth inhibition of human SNB75 cells at 10 uM incubated for 48 hrs by sulforhodamine B assay relative to control. In kind it is functional. Particulars: SNB-75, 48 h, read-out: GI.
For a further experiment, the system named is PANC-1. As to the kind of experiment: Antiproliferative activity against human PANC1 cells after 48 hrs by propidium iodide staining-based fluorometric analysis. In kind it is functional, cell-based. Particulars: PANC-1, 48 h.
Another experiment relates to SK-MEL-2. Nature of the experiment: Growth inhibition of human SK-MEL-2 cells at 10 uM incubated for 48 hrs by sulforhodamine B assay relative to control. In kind it is functional. Particulars: SK-MEL-2, 48 h, read-out: GI.
Experiment [2] deals with HT-29. As to the kind of experiment: Antiproliferative activity against human HT-29 cells after 48 hrs by propidium iodide staining-based fluorometric analysis. In kind it is functional, cell-based. Conditions: HT-29, 48 h.
A further experiment has as its system NCI-H23. Nature of the experiment: Growth inhibition of human NCI-H23 cells at 10 uM incubated for 48 hrs by sulforhodamine B assay relative to control. It counts as functional. Particulars: NCI-H23, 48 h, read-out: GI.
A further experiment relates to NCI-H460. Nature of the experiment: Antiproliferative activity against human H460 cells after 48 hrs by propidium iodide staining-based fluorometric analysis. Conditions: NCI-H460, 48 h. It counts as functional, cell-based.
For a further experiment, the system named is HL-60(TB). As to the kind of experiment: Growth inhibition of human HL-60(TB) cells at 10 uM incubated for 48 hrs by sulforhodamine B assay relative to control. In kind it is functional. Conditions: HL-60, 48 h, read-out: GI.
In the next experiment the test system is MOLT-4. As to the kind of experiment: Growth inhibition of human MOLT4 cells at 10 uM incubated for 48 hrs by sulforhodamine B assay relative to control. It counts as functional. Particulars: MOLT-4, 48 h, read-out: GI.
Another experiment has as its system NCI-H522. Nature of the experiment: Growth inhibition of human NCI-H522 cells at 10 uM incubated for 48 hrs by sulforhodamine B assay relative to control. It counts as functional. Conditions: NCI-H522, 48 h, read-out: GI.
The next experiment relates to Hs-578T. As to the kind of experiment: Growth inhibition of human Hs 578T cells at 10 uM incubated for 48 hrs by sulforhodamine B assay relative to control. It counts as functional. Conditions: read-out: GI.
The next experiment deals with OVCAR-8. Nature of the experiment: Growth inhibition of human OVCAR8 cells at 10 uM incubated for 48 hrs by sulforhodamine B assay relative to control. In kind it is functional. Particulars: OVCAR-8, 48 h, read-out: GI.
For the next experiment, the system named is MDA-MB-231. Nature of the experiment: Growth inhibition of human MDA-MB-231/ATCC cells at 10 uM incubated for 48 hrs by sulforhodamine B assay relative to control. In kind it is functional. Conditions: MDA-MB-231, 48 h, read-out: GI.
The subject of a further experiment is MCF7. As to the kind of experiment: Growth inhibition of human MCF7 cells at 10 uM incubated for 48 hrs by sulforhodamine B assay relative to control. Conditions: MCF7, 48 h, read-out: GI. It counts as functional.
For the next experiment, the system named is SK-OV-3. As to the kind of experiment: Growth inhibition of human SKOV3 cells at 10 uM incubated for 48 hrs by sulforhodamine B assay relative to control. In kind it is functional. Conditions: SK-OV-3, 48 h, read-out: GI.
A further experiment has as its system PC-3. As to the kind of experiment: Growth inhibition of human PC3 cells at 10 uM incubated for 48 hrs by sulforhodamine B assay relative to control. Particulars: PC-3, 48 h, read-out: GI. In kind it is functional.
In the next experiment the target is Tubulin (Homo sapiens) (UniProt P68371+Q9H4B7+P0DPH7+P68366+Q13509+Q71U36+P04350+Q3ZCM7+P07437+P68363+Q9BQE3+Q6PEY2+Q13885+Q9BVA1+Q9BUF5). Nature of the experiment: Inhibition of tubulin (unknown origin) polymerization assessed as polymerized tubulin level at 5 to 25 uM by fluorescence assay. In kind it is protein-complex assay.

As a reminder, the IC50 is the point on the concentration scale where inhibition reaches its midpoint.

`C/C(=N\O)c1ccc(NC(=O)Cn2nc(-c3ccc(Cl)cc3)nc2N)cc1`: the inhibition of growth at 10 µM with UACC-257 is 27.8%; in the experiment on HT-29 [1] it was 13.3%; in the experiment with HOP-62, 11.7%; in the experiment on SF-268 it was 10.5%; in the experiment on SNB-19 it was 10.7%; with T47D, 13.5%. The inhibition of growth at 10 µM in the experiment with UO-31 was determined as 34%; in the experiment on NCI-H226 it was 17.8%; in the experiment with CCRF-CEM it was 14.7%; in the experiment with UACC-62 it was 8.96%; in the experiment with NCI-H322M it was 7.09%; in the experiment on IGROV-1, 10.5%. The inhibition of growth at 10 µM in the experiment on A549 was determined as 20.1%; with U-251, 9.67%; in the experiment with SR it was 18.3%; in the experiment on RPMI-8226, 6.42%; in the experiment on SNB-75, 12%; in the experiment on SK-MEL-2, 15.3%. In addition, the inhibition of growth at 10 µM with NCI-H23 worked out at 7.43%; in the experiment with HL-60(TB), 5.94%; in the experiment with MOLT-4 it was 33%; with NCI-H522, 31.5%; in the experiment on Hs-578T, 11.2%; in the experiment on OVCAR-8 it was 18%. The inhibition of growth at 10 µM turned out to be 17.4% in the experiment with MDA-MB-231, 15.9% with MCF7, 27.4% with SK-OV-3 and 28.9% in the experiment with PC-3. Moreover, the IC50 was found to be 8.4 µM with MIA PaCa-2, 6.6 µM with PANC-1, 5.8 µM with HT-29 [2] and 7.1 µM with NCI-H460.

As for `CC(=O)O[C@@]12CO[C@@H]1C[C@H](O)[C@@]1(C)C(=O)[C@H](O)C3=C(C)[C@@H](OC(=O)[C@H](O)[C@@H](NC(=O)OC(C)(C)C)c4ccccc4)C[C@@](O)([C@@H](OC(=O)c4ccccc4)[C@H]21)C3(C)C`, at Tubulin (Homo sapiens), the Activity is 4740 a.u.
